Reference: BindingDB's records for doi:10.1021/jm010992z (Pharmazeutisches Institut Der Universität Freiburg, 2002)

Columns and labels:
[1] = Sigma opioid receptor type 2 affinity in rat liver by employing [3H]ditolylguanidine as radioligand
[2] = Sigma opioid receptor type 1 affinity in guinea pig brain by employing [3H](+)-pentazocine as radioligand.
[3] = target: Sodium-dependent dopamine transporter (Rattus norvegicus) (UniProt P23977); test: The compound was tested for inhibition of dopamine reuptake
Sodium-dependent dopamine transporter (Rattus norvegicus), sequence (P23977 whole entry, looked up): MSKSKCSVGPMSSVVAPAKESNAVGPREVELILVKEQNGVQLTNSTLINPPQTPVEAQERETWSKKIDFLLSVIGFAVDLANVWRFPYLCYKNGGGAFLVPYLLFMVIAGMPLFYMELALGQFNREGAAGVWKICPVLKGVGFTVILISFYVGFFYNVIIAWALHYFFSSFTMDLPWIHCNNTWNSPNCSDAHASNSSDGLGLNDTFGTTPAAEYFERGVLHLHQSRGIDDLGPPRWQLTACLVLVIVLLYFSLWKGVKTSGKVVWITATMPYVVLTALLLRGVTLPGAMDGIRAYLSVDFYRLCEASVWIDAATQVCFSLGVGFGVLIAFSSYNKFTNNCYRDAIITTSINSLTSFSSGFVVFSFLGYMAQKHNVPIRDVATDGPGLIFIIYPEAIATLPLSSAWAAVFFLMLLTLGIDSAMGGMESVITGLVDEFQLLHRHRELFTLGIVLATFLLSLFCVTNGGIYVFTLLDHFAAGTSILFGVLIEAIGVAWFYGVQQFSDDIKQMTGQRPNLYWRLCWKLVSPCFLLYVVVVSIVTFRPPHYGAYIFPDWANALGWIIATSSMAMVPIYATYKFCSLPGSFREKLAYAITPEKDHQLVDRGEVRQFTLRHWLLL

SMILES | Ki [1] | Ki [2] | IC50 [3]
OC1Cc2ccccc2C2(CCN(CCc3ccccc3)CC2)O1 (stereo not given) [1'-phenethylspiro[3,4-dihydro-1H-isochromene-1,4'-(hexahydropyridine)]-3-ol] | 107 nM | 44 nM | 
COC1Cc2ccccc2C2(CCN(C/C=C/c3ccccc3)CC2)O1 (stereo not given) [3-[3-methoxyspiro[3,4-dihydro-1H-isochromene-1,4'-(hexahydropyridine)]-1-yl]-1-phenyl-(E)-1-propene] | 4000 nM | 13 nM | 
COC1Cc2ccccc2C2(CCN(CCCCc3ccccc3)CC2)O1 (stereo not given) [1-[3-methoxyspiro[3,4-dihydro-1H-isochromene-1,4'-(hexahydropyridine)]-1-yl]-4-phenylbutane] | 311 nM | 10 nM | 
COC1OC2(CCN(Cc3ccccc3)CC2)c2ccccc21 (stereo not given) [1'-benzyl-3-methoxyspiro[1,3-dihydroisobenzofuran-1,4'-(hexahydropyridine)]] |  |  | > 10000 nM
COC1Cc2ccccc2C2(CCN(CCCc3ccccc3)CC2)O1 (stereo not given) |  |  | 1600 nM
COC1Cc2ccccc2C2(CCN(C)CC2)O1 (stereo not given) [3-methoxy-1'-methylspiro[3,4-dihydro-1H-isochromene-1,4'-(hexahydropyridine)]] | > 10000 nM | 4400 nM | 
